{"source": "patent US9468602B2", "about": "“Pharmaceutical microemulsion for preventing supramolecular aggregation of amphiphilic molecules” (AZAD Pharma AG, priority 2009, dated 2016)", "experiment": "Dynamic Laser Light Scattering (DLLS) analysis of supramolecular aggregation", "format": "physicochemical", "experimental": "Dynamic Laser Light Scattering (DLLS) was carried out on a Zetasizer Nano S from Malvern Instruments. DLLS is used for measuring the size of the microemulsion oil droplets or size of the supramolecular aggregates (% distribution function modality). Further characterization of supramolecular aggregation is given by the correlation coefficient function modality analysis of the Dynamic Laser Light Scattering.\nIn order to monitor the level of molecular aggregation in solution, Dynamic Laser Light Scattering (DLLS) has been used. Using this technique, it is not necessary to dilute the sample."}
{"smiles": "CC(=O)O[C@@]12CO[C@@H]1C[C@H](O)[C@@]1(C)C(=O)[C@H](O)C3=C(C)[C@@H](OC(=O)[C@H](O)[C@@H](NC(=O)OC(C)(C)C)c4ccccc4)C[C@@](O)([C@@H](OC(=O)c4ccccc4)[C@H]21)C3(C)C", "note": "[docetaxel]", "values": [{"measurement": "Aggregation by DLLS (correlation coefficient function)", "setting": "50 μg/ml in water", "result": "presence of aggregates"}, {"measurement": "Aggregation by DLLS (correlation coefficient function)", "setting": "50 μg/ml in water plus triacetin 10 mg/ml", "result": "greatly reduces supramolecular aggregation"}, {"measurement": "Aggregation by DLLS (correlation coefficient function)", "setting": "50 μg/ml in water plus triacetin 30 mg/ml", "result": "totally eliminates the presence of molecular aggregates"}]}
